This note sets out measurements from patent US11076595B2, “1-(n,n-disubstituted carbamoyl) 4-(substituted sulfonyl)triazolin-5-one derivative, 4-(n,n-disubstituted carbamoyl) 1-(substituted sulfonyl)triazolin-5-one derivative, and herbicide containing said derivative as active ingredient” (HOKKO CHEMICAL INDUSTRY CO., LTD., priority 2017, dated 2021).

Holding throughout (assay type): in vivo
Experiment [1] concerns Scirpus juncoides. Description: Test Example 11: herbicidal effect test by soil treatment in paddy field. Particulars: 120 g/10a active ingredient, 14 days after treatment. The method in brief:
(§1)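 Pre-emergence flooded-paddy test: the water-diluted emulsifiable concentrate, 120 g active ingredient per 10 are, was dripped into pots immediately after seeding, with water held at about 3 cm. Two replicate pots per rate; 14 days after treatment, plant dry weight versus untreated pots gave the weed suppression rate.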

Experiment [2] has as its system Echinochloa crus-galli. The description is as above. Particulars: 120 g/10a active ingredient, 14 days after treatment. The procedure, abridged:
as §1

For experiment [3], the system named is Lindernia pyxidaria. Described as above. Particulars: 120 g/10a active ingredient, 14 days after treatment. The procedure, abridged: as §1
For experiment [4], the system named is Monochoria vaginalis. Described as above. The following applies: 120 g/10a active ingredient, 14 days after treatment. The method in brief: as §1
Experiment [5] has as its system crabgrass. Nature of the experiment: Test Example 13: herbicidal effect test by soil treatment in upland field. The following applies: 120 g/10a, 14 days after treatment. The procedure, abridged: (§2)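 Weed suppression rate (%) computed at 14 days as 1 minus treated/untreated mean dry weight, times 100, with two replicates per concentration. Emulsifiable concentrate diluted in water was applied at 120 g a.i. per 10 are (100 liter per 10 are) onto soil surface one day post-sowing of 20 seeds each in 36 cm^2 pots of alluvial soil.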

Experiment [6] concerns Echinochloa crus-galli. The description is as above. The following applies: 120 g/10a, 14 days after treatment. The procedure, abridged:
as §2

Experiment [7] deals with Chenopodium album. The experiment is described as above. The following applies: 120 g/10a, 14 days after treatment. The procedure, abridged: as §2
Experiment [8] concerns Amaranthus viridis. The description is as above. Particulars: 120 g/10a, 14 days after treatment. The procedure, abridged:
as §2

Experiment [9] relates to Echinochloa crus-galli. Description: Test Example 14: herbicidal effect test by foliage treatment in upland field. The following applies: 7 days after sowing, 120 g/10a, 14 days after treatment. The procedure, abridged:
(§3)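 Dry-weight read-out: suppression (%) = (1 − mean treated dry weight/mean untreated dry weight)×100, at 14 days post-spray, two replicate plots per concentration. Spray applied 7 days after sowing, 120 g a.i. per 10 are.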

In experiment [10] the test system is Amaranthus viridis. The experiment is described as above. Particulars: 7 days after sowing, 120 g/10a, 14 days after treatment. The procedure, abridged: as §3
The subject of experiment [11] is crabgrass. Described as above. Particulars: 7 days after sowing, 120 g/10a, 14 days after treatment. The procedure, abridged:
as §3

Experiment [12] has as its system Chenopodium album. Described as above. The following applies: 7 days after sowing, 120 g/10a, 14 days after treatment. The procedure, abridged: as §3
Experiment [13] relates to Scirpus juncoides. Description: Test Example 12: herbicidal effect test by treatment during growing period in paddy field. Particulars: 120 g/10a; treatment seven days after sowing in flooded paddy pot; assessed 14 days after treatment. The method in brief:
(§4)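 Seeds (30 per species) are sown shallowly into fertilized, puddled paddy soil kept under ~3 cm of water in a greenhouse. One week later, compound formulated as an emulsifiable concentrate is applied dropwise to the water at 120 g a.i./10 are. After 14 days, dry weights give percent suppression against untreated controls.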

The subject of experiment [14] is Echinochloa crus-galli. The experiment is described as above. The following applies: 120 g/10a; treatment seven days after sowing in flooded paddy pot; assessed 14 days after treatment. The procedure, abridged: as §4
Experiment [15] deals with Lindernia pyxidaria. The description is as above. Particulars: 120 g/10a; treatment seven days after sowing in flooded paddy pot; assessed 14 days after treatment. The method in brief:
as §4

Experiment [16] concerns Monochoria vaginalis. The experiment is described as above. The following applies: 120 g/10a; treatment seven days after sowing in flooded paddy pot; assessed 14 days after treatment. The method in brief:
as §4

Consider `CC(C)N(C(=O)n1cnn(S(=O)(=O)C2CC2)c1=O)c1ncc(Cl)cc1Cl` [Compound 11-234], for which the “Weed suppression rate (%) Scirpus juncoides” value in the experiment with Scirpus juncoides [1] and in the experiment on Scirpus juncoides [13] was 90% each time. The “Weed suppression rate (%) Echinochloa crus-galli” value in the experiment with Echinochloa crus-galli [2] and in the experiment on Echinochloa crus-galli [14] was 90% each time. Besides, the “Weed suppression rate (%) Lindemia pyxidaria” value in the experiment with Lindernia pyxidaria [3] and in the experiment on Lindernia pyxidaria [15] was 90% throughout. The entries for the “Weed suppression rate (%) Monochoria vaginalis” value with Monochoria vaginalis [4] and in the experiment on Monochoria vaginalis [16] were 80% and 90%, respectively. Moreover, the “herbicidal effect, Crabgrass” value in the experiment on crabgrass [5] and in the experiment on crabgrass [11] was 90% in each case. For the same compound, the “herbicidal effect, Echinochloa crus-galli” value in the experiment on Echinochloa crus-galli [6] and in the experiment on Echinochloa crus-galli [9] was 80% in each case. The “herbicidal effect, Chenopodium album” value in the experiment with Chenopodium album [7] and in the experiment on Chenopodium album [12] was 80% throughout. The “herbicidal effect, Amaranthus viridis” value with Amaranthus viridis [8] and in the experiment with Amaranthus viridis [10] was 90% each time.
Consider `CC(C)N(C(=O)n1cnn(S(=O)(=O)C2CC2)c1=O)c1ccc(Cl)nc1Cl` [Compound 11-238], for which the “Weed suppression rate (%) Scirpus juncoides” value in the experiment with Scirpus juncoides [1] and with Scirpus juncoides [13] was 90% throughout. Also, the figures for the “Weed suppression rate (%) Echinochloa crus-galli” value in the experiment on Echinochloa crus-galli [2] and in the experiment with Echinochloa crus-galli [14] were 90% and 100%, respectively. For the same compound, the “Weed suppression rate (%) Lindemia pyxidaria” value with Lindernia pyxidaria [3] turned out to be 100%; in the experiment on Lindernia pyxidaria [15], 80%. For the same compound, the “Weed suppression rate (%) Monochoria vaginalis” value with Monochoria vaginalis [4] is recorded as 80%; in the experiment with Monochoria vaginalis [16], 90%. Also, the “herbicidal effect, Crabgrass” value in the experiment on crabgrass [5] and with crabgrass [11] was 90% in each case. Also, the “herbicidal effect, Echinochloa crus-galli” value in the experiment on Echinochloa crus-galli [6] and in the experiment on Echinochloa crus-galli [9] was 80% throughout. The “herbicidal effect, Chenopodium album” value with Chenopodium album [7] and in the experiment with Chenopodium album [12] was 80% each time. Moreover, the “herbicidal effect, Amaranthus viridis” value with Amaranthus viridis [8] and with Amaranthus viridis [10] was 90% in each case.
In the case of `CC(C)N(C(=O)n1cnn(S(=O)(=O)C2CCC2)c1=O)c1ccc(F)cc1F` [Compound 11-258], the “Weed suppression rate (%) Scirpus juncoides” value is 100% in the experiment on Scirpus juncoides [1] and 90% in the experiment on Scirpus juncoides [13]. Besides, the “Weed suppression rate (%) Echinochloa crus-galli” value in the experiment on Echinochloa crus-galli [2] is recorded as 100%; with Echinochloa crus-galli [14], 90%. Further, the “Weed suppression rate (%) Lindemia pyxidaria” value in the experiment on Lindernia pyxidaria [3] was 100%; in the experiment on Lindernia pyxidaria [15], 90%. In addition, the “Weed suppression rate (%) Monochoria vaginalis” value in the experiment on Monochoria vaginalis [4] was 100%; with Monochoria vaginalis [16], 90%. Besides, the “herbicidal effect, Crabgrass” value in the experiment with crabgrass [5] was determined as 100%; in the experiment with crabgrass [11], 90%. In addition, the “herbicidal effect, Echinochloa crus-galli” value stood at 100% with Echinochloa crus-galli [6] and 80% with Echinochloa crus-galli [9]. Besides, the “herbicidal effect, Chenopodium album” value in the experiment on Chenopodium album [7] amounted to 100%; in the experiment with Chenopodium album [12], 80%. In addition, the “herbicidal effect, Amaranthus viridis” value was found to be 100% with Amaranthus viridis [8] and 90% with Amaranthus viridis [10].
Regarding `CC(C)N(C(=O)n1cnn(S(=O)(=O)C2CCCC2)c1=O)c1ccc(F)cc1F` [Compound 11-273], the “Weed suppression rate (%) Scirpus juncoides” value in the experiment with Scirpus juncoides [1] and with Scirpus juncoides [13] was 90% each time. Besides, the “Weed suppression rate (%) Echinochloa crus-galli” value in the experiment on Echinochloa crus-galli [2] and with Echinochloa crus-galli [14] was 100% throughout. The “Weed suppression rate (%) Lindemia pyxidaria” value is 100% with Lindernia pyxidaria [3] and 90% in the experiment on Lindernia pyxidaria [15]. Besides, the “Weed suppression rate (%) Monochoria vaginalis” value in the experiment on Monochoria vaginalis [4] and in the experiment on Monochoria vaginalis [16] was 90% throughout. Further, the “herbicidal effect, Crabgrass” value in the experiment with crabgrass [5] stood at 100%; in the experiment on crabgrass [11], 90%. For the same compound, the results for the “herbicidal effect, Echinochloa crus-galli” value with Echinochloa crus-galli [6] and with Echinochloa crus-galli [9] were 90% and 80%, respectively. For the same compound, the “herbicidal effect, Chenopodium album” value amounted to 90% with Chenopodium album [7] and 80% with Chenopodium album [12]. For the same compound, the “herbicidal effect, Amaranthus viridis” value in the experiment with Amaranthus viridis [8] worked out at 60%; in the experiment on Amaranthus viridis [10], 90%.
Take `CC(C)N(C(=O)n1cnn(S(=O)(=O)C2CCCCC2)c1=O)c1ccccc1` [Compound 11-283]: the “Weed suppression rate (%) Scirpus juncoides” value with Scirpus juncoides [1] and in the experiment on Scirpus juncoides [13] was 90% each time. Besides, the “Weed suppression rate (%) Echinochloa crus-galli” value is 100% in the experiment with Echinochloa crus-galli [2] and 90% in the experiment with Echinochloa crus-galli [14]. For the same compound, the “Weed suppression rate (%) Lindemia pyxidaria” value in the experiment with Lindernia pyxidaria [3] and in the experiment with Lindernia pyxidaria [15] was 90% throughout. For the same compound, the entries for the “Weed suppression rate (%) Monochoria vaginalis” value in the experiment on Monochoria vaginalis [4] and with Monochoria vaginalis [16] were 70% and 90%, respectively. The “herbicidal effect, Crabgrass” value in the experiment with crabgrass [5] and in the experiment on crabgrass [11] was 90% each time. Further, the “herbicidal effect, Echinochloa crus-galli” value in the experiment on Echinochloa crus-galli [6] and in the experiment on Echinochloa crus-galli [9] was 80% in each case. For the same compound, the “herbicidal effect, Chenopodium album” value in the experiment on Chenopodium album [7] and in the experiment on Chenopodium album [12] was 80% in each case. The “herbicidal effect, Amaranthus viridis” value in the experiment with Amaranthus viridis [8] and in the experiment on Amaranthus viridis [10] was 90% each time.
Take `CC(C)N(C(=O)n1cnn(S(=O)(=O)C2CCCCC2)c1=O)c1ccc(F)cc1F` [Compound 11-294]: the “Weed suppression rate (%) Scirpus juncoides” value in the experiment with Scirpus juncoides [1] is 100%; with Scirpus juncoides [13] it was 90%. Besides, the “Weed suppression rate (%) Echinochloa crus-galli” value with Echinochloa crus-galli [2] and in the experiment with Echinochloa crus-galli [14] was 100% in each case. The “Weed suppression rate (%) Lindemia pyxidaria” value in the experiment with Lindernia pyxidaria [3] is 100%; in the experiment on Lindernia pyxidaria [15], 80%. The “Weed suppression rate (%) Monochoria vaginalis” value was determined as 100% in the experiment with Monochoria vaginalis [4] and 90% in the experiment with Monochoria vaginalis [16]. For the same compound, the “herbicidal effect, Crabgrass” value in the experiment with crabgrass [5] and in the experiment with crabgrass [11] was 90% each time. The “herbicidal effect, Echinochloa crus-galli” value in the experiment on Echinochloa crus-galli [6] and in the experiment on Echinochloa crus-galli [9] was 80% in each case. For the same compound, the “herbicidal effect, Chenopodium album” value with Chenopodium album [7] and in the experiment with Chenopodium album [12] was 80% throughout. In addition, the “herbicidal effect, Amaranthus viridis” value with Amaranthus viridis [8] and with Amaranthus viridis [10] was 90% in each case.
Consider `CC(C)N(C(=O)n1cnn(S(=O)(=O)C2CCCCC2)c1=O)c1c(F)cccc1F` [Compound 11-296], for which the entries for the “Weed suppression rate (%) Scirpus juncoides” value with Scirpus juncoides [1] and in the experiment on Scirpus juncoides [13] were 100% and 90%, respectively. Moreover, the “Weed suppression rate (%) Echinochloa crus-galli” value with Echinochloa crus-galli [2] and in the experiment with Echinochloa crus-galli [14] was 100% throughout. Also, the entries for the “Weed suppression rate (%) Lindemia pyxidaria” value in the experiment with Lindernia pyxidaria [3] and in the experiment on Lindernia pyxidaria [15] were 100% and 80%, respectively. Further, the “Weed suppression rate (%) Monochoria vaginalis” value was found to be 70% in the experiment on Monochoria vaginalis [4] and 90% with Monochoria vaginalis [16]. Moreover, the “herbicidal effect, Crabgrass” value in the experiment on crabgrass [5] and in the experiment on crabgrass [11] was 100% each time. For the same compound, the “herbicidal effect, Echinochloa crus-galli” value in the experiment with Echinochloa crus-galli [6] and in the experiment on Echinochloa crus-galli [9] was 100% throughout. In addition, the “herbicidal effect, Chenopodium album” value with Chenopodium album [7] and in the experiment with Chenopodium album [12] was 70% in each case. The “herbicidal effect, Amaranthus viridis” value was 60% in the experiment on Amaranthus viridis [8] and 90% in the experiment on Amaranthus viridis [10].
Regarding `CC(C)N(C(=O)n1cnn(S(=O)(=O)C2CCCCC2)c1=O)c1ccc(F)c(F)c1F` [Compound 11-297], the “Weed suppression rate (%) Scirpus juncoides” value with Scirpus juncoides [1] and in the experiment on Scirpus juncoides [13] was 100% each time. The “Weed suppression rate (%) Echinochloa crus-galli” value in the experiment with Echinochloa crus-galli [2] and with Echinochloa crus-galli [14] was 100% in each case. Further, the “Weed suppression rate (%) Lindemia pyxidaria” value in the experiment with Lindernia pyxidaria [3] is on record as 100%; in the experiment on Lindernia pyxidaria [15], 70%. In addition, the figures for the “Weed suppression rate (%) Monochoria vaginalis” value in the experiment with Monochoria vaginalis [4] and in the experiment on Monochoria vaginalis [16] were 90% and 100%, respectively. For the same compound, the figures for the “herbicidal effect, Crabgrass” value in the experiment on crabgrass [5] and in the experiment with crabgrass [11] were 90% and 100%, respectively. The figures for the “herbicidal effect, Echinochloa crus-galli” value with Echinochloa crus-galli [6] and in the experiment on Echinochloa crus-galli [9] were 90% and 100%, respectively. In addition, the “herbicidal effect, Chenopodium album” value with Chenopodium album [7] is reported as 70%; in the experiment on Chenopodium album [12] it was 60%. Besides, the results for the “herbicidal effect, Amaranthus viridis” value in the experiment with Amaranthus viridis [8] and in the experiment with Amaranthus viridis [10] were 100% and 90%, respectively.
